Patent US8067445B2, “N,N-disubstituted aminoalkylbiphenyl antagonists of prostaglandin D2 receptors” (Panmira Pharmaceuticals, LLC, priority 2008, dated 2011)

Legend:
[1] = biological target: T1, human DP2 receptor (Homo sapiens, UniProt Q9Y5Y4); assay: DP2/CRTH2 radioligand binding assay ([3H]PGD2); settings: [3H]PGD2 binding, membranes of HEK293 cells expressing human DP2; read-out: hDP2
T1 construct: expressed in transfected cells
T1 sequence (Q9Y5Y4 1-395): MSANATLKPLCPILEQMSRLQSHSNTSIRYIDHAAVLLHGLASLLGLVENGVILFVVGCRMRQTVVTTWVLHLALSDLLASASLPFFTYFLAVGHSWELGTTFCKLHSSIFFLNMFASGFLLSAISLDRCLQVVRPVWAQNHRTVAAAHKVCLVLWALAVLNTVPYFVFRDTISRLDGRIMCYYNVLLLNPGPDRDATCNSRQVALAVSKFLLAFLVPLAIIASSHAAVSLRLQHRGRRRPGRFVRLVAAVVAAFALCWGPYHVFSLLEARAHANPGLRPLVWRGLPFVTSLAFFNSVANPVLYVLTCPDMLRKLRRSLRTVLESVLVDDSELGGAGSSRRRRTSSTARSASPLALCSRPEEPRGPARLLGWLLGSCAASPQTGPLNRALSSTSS
Procedure, shortened: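 Membranes from HEK293 cells stably expressing recombinant human DP2 incubated 60 min at room temperature with 1 nM [3H]PGD2 and compound in pH 7.4 Hepes/MnCl2/EDTA buffer, ± 0.2% human serum albumin. Bound radioactivity measured after filtration; non-specific binding defined with 10 μM PGD2. IC50 from titration curves.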

[2] = biological target: T2, recombinant human CRTH2 receptor (Homo sapiens, UniProt Q9Y5Y4); assay: GTPγS binding assay; format: biochemical; settings: +HSA (0.2% human serum albumin), 80 nM PGD2, CHO cell membranes; read-out: hDP2 GTPγS μM (+HSA)
T2 construct: expressed in transfected cells
T2 sequence (Q9Y5Y4 1-395): T1 sequence (Q9Y5Y4 1-395)
Procedure: The ability of a compound to inhibit binding of GTP to DP2 is assessed via a membrane GTPγS assay. CHO cells stably expressing the recombinant human CRTH2 receptor are resuspended in 10 mM Hepes, 7.4 containing 1 mM DTT, lysed and centrifuged at 75,000×g to pellet the membranes. The membranes are resuspended in 10 mM Hepes, 7.4 containing 1 mM DTT and 10% glycerol. […] The reactions are terminated by rapid filtration through Whatman GF/B glass fibre filter plates. The filter plates are washed 3 times with 1 ml cold Assay Buffer and dried. Scintillant is then added to the plates and the radioactivity retained on the filters is determined on a Packard TopCount (Perkin Elmer). Specific binding is determined as total radioactive binding minus non-specific binding in the absence of the ligand (80 nM PGD2). IC50s were determined using Graphpad prism analysis of drug titration curves.

[3] = biological target: T3, human DP1 receptor (Homo sapiens, UniProt Q13258); assay: DP1 radioligand binding assay ([3H]BWA868C, platelet membranes); settings: [3H]BWA868C binding, human platelet membranes; read-out: hDP1
T3 construct: tissue Biological Specialty Corporation; host or cells: human platelet membranes
T3 sequence (Q13258 1-359): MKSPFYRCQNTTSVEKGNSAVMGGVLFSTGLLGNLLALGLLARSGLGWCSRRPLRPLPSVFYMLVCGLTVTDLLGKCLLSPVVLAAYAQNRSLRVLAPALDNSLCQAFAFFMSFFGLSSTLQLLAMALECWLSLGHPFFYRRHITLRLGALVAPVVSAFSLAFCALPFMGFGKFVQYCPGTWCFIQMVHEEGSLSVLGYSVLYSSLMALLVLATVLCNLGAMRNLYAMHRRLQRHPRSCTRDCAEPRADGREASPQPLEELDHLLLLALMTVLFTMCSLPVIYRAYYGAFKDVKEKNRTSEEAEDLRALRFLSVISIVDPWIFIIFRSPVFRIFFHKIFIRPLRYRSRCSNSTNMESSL
Procedure, shortened: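 Human platelet membranes (20 μg protein/well) incubated 60 min at room temperature with 2 nM [3H]BWA868C and compound in 50 mM Hepes, 10 mM MnCl2, 1 mM EDTA, pH 7.4, ± 0.2% human serum albumin. Bound radioactivity measured after filtration; nonspecific binding defined with 10 μM BWA868C; IC50 from titration curves.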

Compound: CCN(Cc1cc(C(F)(F)F)ccc1-c1cc(CC(=O)O)ccc1OCC1CC1)C(=O)OCc1ccccc1 [Compound 1-130]
- IC50 [1]: < 300 nM
- IC50 [2]: < 0.3 µM
- IC50 [3]: 1000 to 30000 nM

Compound: CCN(Cc1cc(C(F)(F)F)ccc1-c1cc(CC(=O)O)ccc1OC)C(=O)C1(c2ccc(Cl)cc2Cl)CC1 [Compound 1-131, [2′-({[1-(2,4-Dichloro-phenyl)-cyclopropanecarbonyl]-ethyl-amino}-methyl)-6-methoxy-4′-trifluoromethyl-biphenyl-3-yl]-acetic acid]
- IC50 [1]: < 300 nM
- IC50 [2]: < 0.3 µM
- IC50 [3]: 1000 to 30000 nM

Compound: CCN(Cc1cc(C(F)(F)F)ccc1-c1cc(CC(=O)O)cc(C(F)(F)F)c1)C(=O)C1CC1 [Compound 1-136, {2′-[(Cyclopropanecarbonyl-ethyl-amino)-methyl]-5,4′-bis-trifluoromethyl-biphenyl-3-yl}-acetic acid]
- IC50 [1]: < 300 nM
- IC50 [2]: < 0.3 µM
- IC50 [3]: 1000 to 30000 nM

Compound: CCOc1ccc(-c2ccc(-c3cc(CC(=O)O)ccc3OC)c(CN(CC)C(=O)C3CC3)c2)cn1 [Compound 1-227, [2′-[(Cyclopropanecarbonyl-ethyl-amino)-methyl]-4′-(6-ethoxy-pyridin-3-yl)-6-methoxy-biphenyl-3-yl]-acetic acid]
- IC50 [1]: < 300 nM
- IC50 [2]: < 0.3 µM
- IC50 [3]: 1000 to 30000 nM
